System: Plasmodium berghei
Assay: Luciferase/luciferin-expressing antifolate-resistant parasites were used to infect a culture of HepG2 cells that were pre-incubated with compounds. Infected hepatocytes emit light due to the luciferase reaction. Assay results are presented as the percent inhibition of light emission compared to control. […]
Format: functional
Conditions: sporozoite; for IC90: read-out: LUCIFERASE INFECTION ASSAY - IC90
[1] = read-out: LUCIFERASE INFECTION ASSAY - IC50

CC(C)c1ccc(/C=C2\CCn3c2nc(=O)c2ccccc23)cc1
IC50 (PBLUC_HILL_SLOPE 2.01, PBLUC_R_SQUARED 0.333, read-out: LUCIFERASE INFECTION ASSAY - IC50): 4.19 µM
IC90: > 10.4 µM

CN(c1ccccc1)c1cc(C(=O)Nc2ccccc2)ncn1
IC50 (FFLUC_HILL_SLOPE 2.25, FFLUC_R_SQUARED 0.879, PBLUC_HILL_SLOPE 0.724, PBLUC_R_SQUARED 0.686, read-out: LUCIFERASE INFECTION ASSAY - IC50): 0.0327 µM
IC90: 0.681 µM

O=C(O)COc1ccccc1CS(=O)(=O)c1ccc(Cl)cc1
IC50 [1]: > 9.68 µM
IC90: > 9.68 µM

Cc1nc(-c2ccc(CCNC(=O)CN3C(=O)NC(C)(c4ccc5ccccc5c4)C3=O)cc2)cs1 (stereo unspecified)
IC50 [1]: > 10 µM
IC90: > 10 µM

Cc1ccc(O)c(C(=O)NCCc2ccc3c(c2)OCCO3)c1
IC50 (HEPG2TOX_HILL_SLOPE 15.5, HEPG2TOX_R_SQUARED 0.566, PBLUC_HILL_SLOPE 1.92, PBLUC_R_SQUARED 0.779, read-out: LUCIFERASE INFECTION ASSAY - IC50): 2.37 µM
IC90: 7.45 µM

CC1CCc2c(sc3ncnc(NCC(c4ccccc4)N(C)C)c23)C1 (stereo unspecified)
IC50 [1]: > 10 µM
IC90: > 10 µM

Cc1cc(C(=O)COC(=O)c2ccccc2S(=O)(=O)N(C)c2ccccc2)c(C)n1C1CC1
IC50 (HEPG2TOX_HILL_SLOPE 8.61, HEPG2TOX_R_SQUARED 0.607, read-out: LUCIFERASE INFECTION ASSAY - IC50): > 10 µM
IC90: > 10 µM

CC1CC(=O)C2C(=Nc3ccccc3SC2c2ccc(F)cc2)C1 (stereo unspecified)
IC50 (FFLUC_HILL_SLOPE 40.6, FFLUC_R_SQUARED 0.352, PBLUC_HILL_SLOPE 4.94, PBLUC_R_SQUARED 0.608, read-out: LUCIFERASE INFECTION ASSAY - IC50): 7.03 µM
IC90: > 9.72 µM

CCCC(C)C(=O)Nc1nc2ccc(C)cn2c1C(=O)NC1CCCCC1 (stereo unspecified)
IC50 (FFLUC_HILL_SLOPE 3.24, FFLUC_R_SQUARED 0.792, read-out: LUCIFERASE INFECTION ASSAY - IC50): > 8.91 µM
IC90: > 8.91 µM

COc1ccccc1-c1nc2c3c(C)c(C)n(-c4ccccc4OC)c3ncn2n1
IC50 (HEPG2TOX_HILL_SLOPE 8.61, HEPG2TOX_R_SQUARED 0.202, PBLUC_HILL_SLOPE 3.56, PBLUC_R_SQUARED 0.654, read-out: LUCIFERASE INFECTION ASSAY - IC50): 4.05 µM
IC90: 7.51 µM

O=C(Nc1nc2ccccn2c1C(=O)NC1CCCC1)c1ccc(Cl)cc1
IC50 (HEPG2TOX_HILL_SLOPE 0.927, HEPG2TOX_R_SQUARED 0.795, PBLUC_HILL_SLOPE 2.2, PBLUC_R_SQUARED 0.668, read-out: LUCIFERASE INFECTION ASSAY - IC50): 0.447 µM
IC90: 1.21 µM

CCOC(=O)c1nc(N(CCc2ccccc2)C(=O)c2cccnc2SC)sc1C
IC50 [1]: > 10 µM
IC90: > 10 µM

c1ccc(C(CCNCc2ccco2)c2ccco2)cc1 (stereo unspecified)
IC50 (HEPG2TOX_HILL_SLOPE 6.65, HEPG2TOX_R_SQUARED 0.638, PBLUC_HILL_SLOPE 2.47, PBLUC_R_SQUARED 0.734, read-out: LUCIFERASE INFECTION ASSAY - IC50): 4.89 µM
IC90: > 11.7 µM

CCCn1nc(C(=O)NCCc2ccc(-n3cccn3)cc2)c2ccccc2c1=O
IC50 (HEPG2TOX_HILL_SLOPE 1.69, HEPG2TOX_R_SQUARED 0.716, PBLUC_HILL_SLOPE 8.19, PBLUC_R_SQUARED 0.628, read-out: LUCIFERASE INFECTION ASSAY - IC50): 3.1 µM
IC90: 4.06 µM

Cc1csc(=O)n1CC(=O)Nc1cccc2ccccc12
IC50 [1]: > 10 µM
IC90: > 10 µM

CCOC(=O)c1sc(SC)c2c1CC(c1ccccc1)CC2=O (stereo unspecified)
IC50 [1]: > 9.52 µM
IC90: > 9.52 µM

CN(C)CCNC(=O)c1cccc(-c2cc(-c3ccc(-c4ccccc4)cc3F)cnc2N)c1
IC50 (PBLUC_HILL_SLOPE 15.7, PBLUC_R_SQUARED 0.255, read-out: LUCIFERASE INFECTION ASSAY - IC50): > 7.26 µM
IC90: > 7.26 µM

c1cnc(N2CCN(CCCNc3ncnc4sccc34)CC2)nc1
IC50 (FFLUC_HILL_SLOPE 14.8, FFLUC_R_SQUARED 0.258, HEPG2TOX_HILL_SLOPE 2.5, HEPG2TOX_R_SQUARED 0.964, PBLUC_HILL_SLOPE 9.27, PBLUC_R_SQUARED 0.473, read-out: LUCIFERASE INFECTION ASSAY - IC50): 8.5 µM
IC90: > 10 µM

O=C(Nc1nc2ccccn2c1C(=O)NC1CCCC1)c1ccccc1
IC50 (HEPG2TOX_HILL_SLOPE 3.22, HEPG2TOX_R_SQUARED 0.898, PBLUC_HILL_SLOPE 4.41, PBLUC_R_SQUARED 0.561, read-out: LUCIFERASE INFECTION ASSAY - IC50): 4.56 µM
IC90: 7.5 µM

Cc1ccc(NN2C(=O)C=C(c3ccccc3)C2=O)cc1
IC50 (HEPG2TOX_HILL_SLOPE 1.4, HEPG2TOX_R_SQUARED 0.882, PBLUC_HILL_SLOPE 17, PBLUC_R_SQUARED 0.623, read-out: LUCIFERASE INFECTION ASSAY - IC50): 11.2 µM
IC90: > 11.9 µM

COc1ccc(CC(N)c2csc(NC(=O)Nc3cccc(C(F)(F)F)c3)n2)cc1 (stereo unspecified)
IC50 (PBLUC_HILL_SLOPE 3.34, PBLUC_R_SQUARED 0.752, read-out: LUCIFERASE INFECTION ASSAY - IC50): 5.46 µM
IC90: > 7.56 µM

O=C(On1c(-c2ccccc2)nc2ccccc2c1=O)c1ccc(F)cc1
IC50 [1]: > 9.16 µM
IC90: > 9.16 µM

Cc1nn(-c2ccccc2)c(Cl)c1C(=O)N1CCN(C(c2ccccc2)c2ccccc2)CC1
IC50 [1]: > 10 µM
IC90: > 10 µM

CCc1cccc2c(C(=O)CN3CCC(C(=O)N4CCCCCC4)CC3)c[nH]c12
IC50 (PBLUC_HILL_SLOPE 1.3, PBLUC_R_SQUARED 0.149, read-out: LUCIFERASE INFECTION ASSAY - IC50): > 10 µM
IC90: > 10 µM

Cc1ccc(-c2cc(C(=O)NNC(=O)c3nn(C)c(=O)c4ccccc34)[nH]n2)cc1
IC50 [1]: > 10 µM
IC90: > 10 µM

COc1cccc(/C=C/C(=O)Nc2nc3c(s2)CN(C(=O)OC(C)(C)C)CC3)c1
IC50 [1]: 0.387 µM
IC90: 0.475 µM

N#Cc1cc(NC(=O)c2ccc(Cl)cc2)ccc1Sc1ccccc1
IC50 [1]: > 9.04 µM
IC90: > 9.04 µM

CC(c1ccc(S(C)(=O)=O)cc1)N(C)S(=O)(=O)c1ccccc1F (stereo unspecified)
IC50 [1]: > 10 µM
IC90: > 10 µM

CC(=O)N(c1nn(CN(C2CC2)C2CCS(=O)(=O)C2)c(=S)s1)C1CC1 (stereo unspecified)
IC50 (FFLUC_HILL_SLOPE 12.8, FFLUC_R_SQUARED 0.42, read-out: LUCIFERASE INFECTION ASSAY - IC50): > 10 µM
IC90: > 10 µM

Cc1ccc(O)c(-c2cc(C(=O)Nc3ccccc3C(F)(F)F)[nH]n2)c1
IC50 [1]: > 9.13 µM
IC90: > 9.13 µM

Cc1ccc(C(C)(C)C)cc1S(=O)(=O)Nc1ccc(C(=O)OC(C)c2nc(=O)c3c(C)c(C)sc3[nH]2)cc1 (stereo unspecified)
IC50 [1]: > 10 µM
IC90: > 10 µM

COc1cccc(NC(=O)Nc2nc(-c3cc4ccccc4o3)cs2)c1
IC50 (PBLUC_HILL_SLOPE 6.07, PBLUC_R_SQUARED 0.713, read-out: LUCIFERASE INFECTION ASSAY - IC50): 5.5 µM
IC90: 7.91 µM

Cc1ccc(-c2nc(SCc3nc(=O)c4c(-c5ccccc5)csc4[nH]3)[nH]c2-c2ccc(C)cc2)cc1
IC50 (FFLUC_HILL_SLOPE 10.3, FFLUC_R_SQUARED 0.755, read-out: LUCIFERASE INFECTION ASSAY - IC50): > 10 µM
IC90: > 10 µM

Cc1cccn2c(=O)cc(CN3C(=O)NC(C)(c4ccc(F)cc4)C3=O)nc12 (stereo unspecified)
IC50 (HEPG2TOX_HILL_SLOPE 5.95, HEPG2TOX_R_SQUARED 0.496, PBLUC_HILL_SLOPE 2.16, PBLUC_R_SQUARED 0.177, read-out: LUCIFERASE INFECTION ASSAY - IC50): 1.96 µM
IC90: > 2 µM

Cc1ccc2nc(NC(=O)c3c(F)cccc3F)c(C(=O)NC3CCCC3)n2c1
IC50 (HEPG2TOX_HILL_SLOPE 0.446, HEPG2TOX_R_SQUARED 0.792, PBLUC_HILL_SLOPE 1.53, PBLUC_R_SQUARED 0.752, read-out: LUCIFERASE INFECTION ASSAY - IC50): 1.95 µM
IC90: 8.17 µM

COc1cc2c(cc1NC(=O)C(C)N1CCN(C/C=C/c3ccccc3)CC1)oc1ccccc12 (stereo unspecified)
IC50 [1]: 9.73 µM
IC90: > 10 µM

Cn1c(N)c(Sc2ccccc2[N+](=O)[O-])c(=O)n(C)c1=O
IC50 [1]: > 10 µM
IC90: > 10 µM

CCc1ccc(S(=O)(=O)N2[C@@H]3CC[C@@H](C3)[C@H]2c2nc3c(OC(C)C)cccc3[nH]2)cc1
IC50 (HEPG2TOX_HILL_SLOPE 3.46, HEPG2TOX_R_SQUARED 0.87, PBLUC_HILL_SLOPE 16.2, PBLUC_R_SQUARED 0.535, read-out: LUCIFERASE INFECTION ASSAY - IC50): 9.38 µM
IC90: > 10 µM

COc1ccc(NS(=O)(=O)c2ccc(/C=C/C(=O)N(C)Cc3ccc(OC)c(OC)c3OC)cc2)cc1
IC50 (HEPG2TOX_HILL_SLOPE 0.416, HEPG2TOX_R_SQUARED 0.547, PBLUC_HILL_SLOPE 11.7, PBLUC_R_SQUARED 0.671, read-out: LUCIFERASE INFECTION ASSAY - IC50): 9.46 µM
IC90: > 10 µM

CC1=Nn2cc(-c3ccccc3)nc2SC1c1ccccc1 (stereo unspecified)
IC50 (FFLUC_HILL_SLOPE 0.814, FFLUC_R_SQUARED 0.91, PBLUC_HILL_SLOPE 0.719, PBLUC_R_SQUARED 0.79, read-out: LUCIFERASE INFECTION ASSAY - IC50): 0.084 µM
IC90: 1.79 µM

O=C(Nc1cc(C(F)(F)F)cc(C(F)(F)F)c1)c1csc([N+](=O)[O-])c1
IC50 (HEPG2TOX_HILL_SLOPE 11, HEPG2TOX_R_SQUARED 0.957, PBLUC_HILL_SLOPE 1.57, PBLUC_R_SQUARED 0.511, read-out: LUCIFERASE INFECTION ASSAY - IC50): 1.75 µM
IC90: 7.1 µM

CCN(CC)S(=O)(=O)c1ccc(SC(C)C(=O)Nc2ccc(OC(F)(F)F)cc2)nc1 (stereo unspecified)
IC50 (FFLUC_HILL_SLOPE 13.8, FFLUC_R_SQUARED 0.75, read-out: LUCIFERASE INFECTION ASSAY - IC50): > 10 µM
IC90: > 10 µM

Cc1nc(-c2ccc(NC(=O)c3cnn(-c4ccccc4F)c3C(F)(F)F)cc2)cs1
IC50 (PBLUC_HILL_SLOPE 2.7, PBLUC_R_SQUARED 0.26, read-out: LUCIFERASE INFECTION ASSAY - IC50): 7.76 µM
IC90: > 10 µM

Reference: ChEMBL document CHEMBL4483862, “Open-source discovery of chemical leads for next-generation chemoprotective antimalarials” (2018)
